Test results reported in patent publication US7122576B2, “Carbamate compounds for use in preventing or treating bipolar disorder” (priority 2001, dated 2006).

System: hippocampal kindled rats
Test: Hippocampal kindled rat model
Assay type: in vivo, Sprague-Dawley rats
Design: After-Discharge Threshold: unit not given here
Details: for Mean Seizure Score: seizure score scale 1-5
Experimental: Hippocampal Kindled Rat Model
In the hippocampal kindling model (Lothman E W, et al., Epilepsy Res., 1988, 2(6) 367–79), adult male Sprague-Dawley rats are surgically implanted with bipolar electrodes. Seizure score is assessed as follows: (1) mouth and facial movements; (2) above symptoms plus head nodding; (3) above symptoms plus forelimb clonus; (4) above symptoms plus rearing; and (5) above symptoms plus falling.

[1] = 50 mg/kg intraperitoneally, n=8
[2] = 100 mg/kg intraperitoneally, n=8
[3] = 200 mg/kg intraperitoneally, n=8
[4] = 300 mg/kg intraperitoneally, 0.25 hr after dose, n=2
[5] = 300 mg/kg intraperitoneally, 1 hr after dose, n=2
[6] = 300 mg/kg intraperitoneally, 2 hr after dose, n=2
[7] = 300 mg/kg intraperitoneally, 4 hr after dose, n=2

NC(=O)OC[C@H](OC(N)=O)c1ccccc1Cl [enantiomer of Formula (Ib)]
toxicity of dose (50 mg/kg intraperitoneally): nontoxic | % Protected [1]: 12.50% | After-Discharge Duration [1]: 75.88 s | Mean Seizure Score [1]: 3.75 | effect on after-discharge threshold and duration (50 mg/kg intraperitoneally, n=8 per group, over approximately a 3 hour time period): time-dependent reduction in after-discharge threshold and duration | % Protected [2]: 33.33% | After-Discharge Duration [2]: 53.17 s | Mean Seizure Score [2]: 3 | % Protected [3]: 87.50% | After-Discharge Duration [3]: 42 s | Mean Seizure Score [3]: 1.63 | toxicity of dose (300 mg/kg intraperitoneally): nontoxic | After-Discharge Duration [4]: 44 s | After-Discharge Threshold [4]: 105 | Mean Seizure Score [4]: 2.5 | After-Discharge Duration [5]: 50 s | After-Discharge Threshold [5]: >200 | Mean Seizure Score [5]: 1.5 | After-Discharge Duration [6]: 53 s | After-Discharge Threshold [6]: >200 | Mean Seizure Score [6]: 1.5 | After-Discharge Duration [7]: 111 s | After-Discharge Threshold [7]: 200 | Mean Seizure Score [7]: 2.5 | effect against the expression of Stage 5 seizures (300 mg/kg intraperitoneally, n=2, over a 4 hour time period): effective | ED50 (Rattus norvegicus, ip, dose range 50 to 200 mg/kg, intraperitoneally, 95% confidence interval 67.9 to 189.8 mg/kg, read-out: calculated ED50 value for reduction of the seizure score from 5 to 3 or less): 112 mg/kg | anti-kindling effects (hippocampal-kindled rat model): potent anti-kindling effects
